Results reported in patent US20040053918A1, “Erythropoietin production potentiator” (KOWA CO., LTD., priority 2002, published 2004).

What was measured:
Format in all cases: cell-based
Hep3B cells [1] = experiment: EPO produced by Hep3B cells under 1% O2, ELISA of culture supernatant
Method: (§1) Hep3B cells, which produce EPO at a low O2 partial pressure, were cultured in an amount of 1.5-3.0×10^6 cells/petri dish (100 mm) by use of Dulbecco's modified eagles' medium (DMEM)/10% fetal calf serum (FCS) (10 ml). The next day, the culture liquid of each petri dish was renewed, and a predetermined amount of compound 1 was added thereto, followed by culture for 24 hours at 37° C. under 1% O2 or 21% O2. EPO contained in the resultant culture supernatant was measured through ELISA. Separately, EPO potentiator activity was measured in the following manner. The luciferase-pXP2 (serving as a reporter gene) of a Hep3B wild-type gene was ligated with an enhancer and potentiator fragment (144 bp), to thereby produce a modified Hep3B wild-type gene as Pwt. Hep3B cells were cultured in an amount of 1×10^6 cells/petri dish (30 mm) by use of 4-mL DMEM/10% FCS, and the above modified wild-type (2 μg) and β-galactosidase gene (1 μg) (serving as an internal standard) were inserted into each of the cultured cells through the lipofectin method. […] After completion of culture, luciferase activity and β-galactosidase activity of the resultant cell extract were determined. EPO potentiator activity is represented by the following formula.

[2] = test system: EPO enhancer and potentiator fragment luciferase reporter in Hep3B cells; experiment: EPO potentiator activity, luciferase reporter (Pwt) in Hep3B cells, hypoxic induction; conditions: control HI 52.2±10.7
Method: Hep3B cells, which produce EPO at a low O2 partial pressure, were cultured in an amount of 1.5-3.0×10^6 cells/petri dish (100 mm) by use of Dulbecco's modified eagles' medium (DMEM)/10% fetal calf serum (FCS) (10 ml). […] EPO contained in the resultant culture supernatant was measured through ELISA. Separately, EPO potentiator activity was measured in the following manner. The luciferase-pXP2 (serving as a reporter gene) of a Hep3B wild-type gene was ligated with an enhancer and potentiator fragment (144 bp), to thereby produce a modified Hep3B wild-type gene as Pwt. Hep3B cells were cultured in an amount of 1×10^6 cells/petri dish (30 mm) by use of 4-mL DMEM/10% FCS, and the above modified wild-type (2 μg) and β-galactosidase gene (1 μg) (serving as an internal standard) were inserted into each of the cultured cells through the lipofectin method. […] After completion of culture, luciferase activity and β-galactosidase activity of the resultant cell extract were determined. EPO potentiator activity is represented by the following formula.
HI (hypoxic induction)=(1% O2 luciferase/β-galactosidase)/(21% O2 luciferase/β-galactosidase)

Hep3B cells [3] = experiment: EPO produced by Hep3B cells under 21% O2, ELISA of culture supernatant
Method: as §1

Q: How did the “amount of EPO” value (Hep3B cells [1]; 1% O2 (low O2 partial pressure), 24 h, 10 μM compound 1, control 39.5±9.1) turn out when `COc1cc(C=CCCCN2CCCN(CCCC=Cc3cc(OC)c(OC)c(OC)c3)CC2)cc(OC)c1OC` [compound 1, N,N′-bis(5-(3,4,5-trimethoxyphenyl)-4-pentenyl)homopiperazine] was run?
A: The value was 71.0±6.0 mU/protein μg.

Q: What about the “amount of EPO” value (Hep3B cells [1]; 1% O2, 24 h, 15 μM compound 1, control 39.5±9.1) of the same compound?
A: The value was 76.0±13.5 mU/protein μg.

Q: What about the “amount of EPO” value (Hep3B cells [1]; 1% O2, 24 h, 30 μM compound 1, control 39.5±9.1) of the same compound?
A: Its value is 91.5±17.8 mU/protein μg.

Q: What about the “HI (hypoxic induction), EPO potentiator activity” value ([2]; 10 μM compound 1 alone) of the same compound?
A: Its value is 91.0±36.6.

Q: And the “HI (hypoxic induction), EPO potentiator activity” value ([2]; 10 μM compound 1 in the presence of 10^−3M L-NMMA)?
A: The value was 63.4±7.5.

Q: What about the “amount of EPO” value (Hep3B cells [3]; 21% O2 (normal O2 partial pressure), 24 h, 10 μM compound 1, control 33.6±8.7) of the same compound?
A: The value was 49.5±2.3 mU/protein μg.

Q: What about the “amount of EPO” value (Hep3B cells [3]; 21% O2, 24 h, 15 μM compound 1, control 33.6±8.7) of the same compound?
A: The value was 56.4±2.2 mU/protein μg.

Q: What about the “amount of EPO” value (Hep3B cells [3]; 21% O2, 24 h, 30 μM compound 1, control 33.6±8.7) of the same compound?
A: The value was 116.8±5.2 mU/protein μg.
